{"source": "paper PMC8100298", "about": "“Histone deacetylase inhibitor resminostat in combination with sorafenib counteracts platelet-mediated pro-tumoral effects in hepatocellular carcinoma” (Scientific Reports, 2021)", "assay_in_all_cases": "Efficacy screening assay", "type_in_all_cases": "cell-based", "key": {"BT20": {"tested_on": "BT20", "conditions": "BT20, breast", "procedure": "(§1) The experiment was performed by Oncolead GmbH & Co. KG (Karlsfeld , Germany), based on a standardized screening procedure . Cell lines were purchased directly from the ATCC, NCI and DSMZ cell line c ollections. Cells used for the study had undergone less than 20 passages. To ensure the absence of potential contamination and wrong assignment, all cell lines were tested using a whole genome assay (Agilent, USA). All cell lines were grown as recommended by the suppliers and with addition of 100 U/mL penicillin G and 100 µg/mL; streptomycin. Cell growth and treatments were performed in Nunclon D 96 -well plates (NUNC, Germany). The optimal seeding density for each cell line was determined to ensure exponential growth for the duration of the experiment. All cells growing without anti-cancer agents were sub-conﬂuent by the end of the treatment, as determined by visual inspection.\n(§2) After an initial 24 h pre-growth period, the compounds were added. The vehicle concentration […]\n(§3) was 0.1% DMSO. After incubation at 37°C for 72 h, the culture medium was aspirated, and the cells were precipitated by the addition of 10% trichloroacetic acid (Sigma-Aldrich, Missouri, US). After overnight incubation at 4°C, the plates were washed three times with deionized water. The precipitates were then stained with SRB (0.4% wt/v sulforhodamine B solution in 1% acetic acid, Sigma-Aldrich, Missouri, US). Afterwards, the plates were washed six times with 1% acetic acid to remove unbound stain. After drying the plates at room temperature, the bound SRB was solubilized with 10 mM Tris base and the optical density was measured at 520 nm using a Victor2 plate reader (Perkin Elmer, Germany). Blank OD values were subtracted from mean OD values for each concentration. The nonlinear curve ﬁtting and EC50 calculations were per formed using XLﬁt and algorithm “205” (ID Business […]\n(§4) one-way ANOVA and multiple comparison (Dunnett) was performed for compound treatments compared to vehicle control. The adjusted p-values with 95% confidence interval were reported as significant. For comparison of EC50 values in Figure 1F, one-way ANOVA with multiple comparison testing (Tukey) was performed. Multiplicity adjusted p -values for the EC50 with sorafenib versus resminostat for each cell line and comparison between cell lines for sorafenib are presented (95% confidence interval for significance testing). For comparison of EC50 data in Figure 2B, one-way ANOVA with multiple comparison testing (Tukey) was performed. Multiplicity adjusted p-values with 95% confidence interval was applied. For the invasion assays in Figure 4, one-way ANOVA with multiple comparison testing (Tukey) was performed. Multiplicity adjusted p-values with 95% confidence interval was applied. The adjusted p-values comparing vehicle control without vs. with platelets and compound"}, "A549": {"tested_on": "A549", "conditions": "A549, lung", "procedure": "as §1, §2, §3, §4"}, "CAKI1": {"tested_on": "CAKI1", "conditions": "CAKI1, kidney", "procedure": "as §1, §2, §3, §4"}, "BXPC3": {"tested_on": "BXPC3", "conditions": "BXPC3, pancreas", "procedure": "as §1, §2, §3, §4"}, "786O": {"tested_on": "786O", "conditions": "kidney", "procedure": "as §1, §2, §3, §4"}, "C33A": {"tested_on": "C33A", "conditions": "Homo sapiens, C-33-A, cervix, 72 h", "procedure": "as §1, §2, §3, §4"}, "A431": {"tested_on": "A431", "conditions": "A431, skin", "procedure": "as §1, §2, §3, §4"}, "A2780": {"tested_on": "A2780", "conditions": "A2780, ovary", "procedure": "as §1, §2, §3, §4"}, "22RV1": {"tested_on": "22RV1", "conditions": "22RV1, prostate", "procedure": "as §1, §2, §3, §4"}, "ASPC1": {"tested_on": "ASPC1", "conditions": "Homo sapiens, ASPC1, pancreas, 72 h", "procedure": "as §1, §2, §3, §4"}, "CACO2": {"tested_on": "CACO2", "conditions": "CACO2, colon", "procedure": "as §1, §2, §3, §4"}, "NCIH82": {"tested_on": "NCIH82", "conditions": "Homo sapiens, NCI-H82, NCIH82, lung, 72 h", "procedure": "(§5) In a two-step reaction, the substrate with the acetylated lysine side chain was incubated for with a sample containing HDAC activity to p roduce the deacetylated products: 1 h at 30°C for HDAC1, 2, 3 and 6; 30 min at RT for HDAC4, 5, 7 and 9; 2 h at 30°C for HDAC8, 10 and […]\n(§6) (excitation) and 460 nm (emission). […]\nas §1, §2, §3\n(§7) For cell-based and other in vitro assays, data are presented as data mean ± SD of at least […]\n(§8) For the orthotopic mouse model, data are presented as mean + SEM. For statistical analysis, one-way ANOVA and multiple comparison (Dunnett) was performed for compound treatments compared to vehicle control. The adjusted p-values with 95% confidence interval were reported as significant. For comparison of EC50 values in Figure 1F, one-way ANOVA with multiple comparison testing (Tukey) was performed. Multiplicity adjusted p -values for the EC50 with sorafenib versus resminostat for each cell line and comparison between cell lines for sorafenib are presented (95% confidence interval for significance testing). For comparison of EC50 data in Figure 2B, one-way ANOVA with multiple comparison testing (Tukey) was performed. Multiplicity adjusted p-values with 95% confidence interval was applied. For the invasion assays in Figure 4, one-way ANOVA with multiple comparison testing (Tukey) was performed. Multiplicity adjusted p-values with 95% confidence interval was applied. The adjusted p-values comparing vehicle control without vs. with platelets and compound"}, "ACHN": {"tested_on": "ACHN", "conditions": "72 h, kidney", "procedure": "as §5, §6, §1, §2, §3, §7, §8"}, "[1]": {"conditions": "log of EC50, negative, read-out: log(EC50) (converted)"}}, "note": "Where two headings read alike, the source gives them in different places."}
{"smiles": "CN(C)Cc1ccc(S(=O)(=O)n2ccc(/C=C/C(=O)NO)c2)cc1", "note": "[resminostat, Resminostat]", "values": [{"measurement": "EC50", "setting": "BT20; 72 h, read-out: EC50", "value": 1320, "unit": "nM"}, {"measurement": "EC50", "setting": "BT20; Homo sapiens, BT-20, 72 h, log of EC50, negative, read-out: log(EC50) (converted)", "value": 1320, "unit": "nM"}, {"measurement": "EC50", "setting": "BT20; Homo sapiens, BT-20, 72 h, read-out: EC50", "value": 1320, "unit": "nM"}, {"measurement": "EC50", "setting": "A549; 72 h, read-out: EC50", "value": 3500, "unit": "nM"}, {"measurement": "EC50", "setting": "A549; Homo sapiens, A549, 72 h, log of EC50, negative, read-out: log(EC50) (converted)", "value": 3470, "unit": "nM"}, {"measurement": "EC50", "setting": "A549; Homo sapiens, A549, 72 h, read-out: EC50", "value": 3500, "unit": "nM"}, {"measurement": "EC50", "setting": "CAKI1; 72 h, read-out: EC50", "value": 3270, "unit": "nM"}, {"measurement": "EC50", "setting": "CAKI1; Homo sapiens, CAKI-1, 72 h, log of EC50, negative, read-out: log(EC50) (converted)", "value": 3310, "unit": "nM"}, {"measurement": "EC50", "setting": "CAKI1; Homo sapiens, CAKI-1, 72 h, read-out: EC50", "value": 3270, "unit": "nM"}, {"measurement": "EC50", "setting": "BXPC3; 72 h, read-out: EC50", "value": 4230, "unit": "nM"}, {"measurement": "EC50", "setting": "BXPC3; Homo sapiens, BXPC-3, 72 h, log of EC50, negative, read-out: log(EC50) (converted)", "value": 4270, "unit": "nM"}, {"measurement": "EC50", "setting": "BXPC3; Homo sapiens, BXPC-3, 72 h, read-out: EC50", "value": 4220, "unit": "nM"}, {"measurement": "EC50", "setting": "786O; Homo sapiens, 786-0, 72 h, log of EC50, negative, read-out: log(EC50) (converted)", "value": 2570, "unit": "nM"}, {"measurement": "EC50", "setting": "786O; Homo sapiens, 786-0, 72 h, read-out: EC50", "value": 2540, "unit": "nM"}, {"measurement": "EC50", "setting": "786O; 72 h, read-out: EC50", "value": 2540, "unit": "nM"}, {"measurement": "EC50", "setting": "C33A; [1]", "value": 1550, "unit": "nM"}, {"measurement": "EC50", "setting": "C33A; read-out: EC50", "value": 1550, "unit": "nM"}, {"measurement": "EC50", "setting": "A431; 72 h, read-out: EC50", "value": 1490, "unit": "nM"}, {"measurement": "EC50", "setting": "A431; Homo sapiens, A-431, 72 h, log of EC50, negative, read-out: log(EC50) (converted)", "value": 1480, "unit": "nM"}, {"measurement": "EC50", "setting": "A431; Homo sapiens, A-431, 72 h, read-out: EC50", "value": 1490, "unit": "nM"}, {"measurement": "EC50", "setting": "A2780; 72 h, read-out: EC50", "value": 890, "unit": "nM"}, {"measurement": "EC50", "setting": "A2780; Homo sapiens, A2780, 72 h, log of EC50, negative, read-out: log(EC50) (converted)", "value": 891, "unit": "nM"}, {"measurement": "EC50", "setting": "A2780; Homo sapiens, A2780, 72 h, read-out: EC50", "value": 890, "unit": "nM"}, {"measurement": "EC50", "setting": "22RV1; 72 h, read-out: EC50", "value": 1450, "unit": "nM"}, {"measurement": "EC50", "setting": "22RV1; Homo sapiens, 22Rv1, 72 h, log of EC50, negative, read-out: log(EC50) (converted)", "value": 1450, "unit": "nM"}, {"measurement": "EC50", "setting": "22RV1; Homo sapiens, 22Rv1, 72 h, read-out: EC50", "value": 1450, "unit": "nM"}, {"measurement": "EC50", "setting": "ASPC1; [1]", "value": 1660, "unit": "nM"}, {"measurement": "EC50", "setting": "ASPC1; read-out: EC50", "value": 1650, "unit": "nM"}, {"measurement": "EC50", "setting": "CACO2; 72 h, read-out: EC50", "value": 1780, "unit": "nM"}, {"measurement": "EC50", "setting": "CACO2; Homo sapiens, Caco-2, 72 h, log of EC50, negative, read-out: log(EC50) (converted)", "value": 1780, "unit": "nM"}, {"measurement": "EC50", "setting": "CACO2; Homo sapiens, Caco-2, 72 h, read-out: EC50", "value": 1780, "unit": "nM"}, {"measurement": "EC50", "setting": "NCIH82; [1]", "value": 776, "unit": "nM"}, {"measurement": "EC50", "setting": "NCIH82; read-out: EC50", "value": 770, "unit": "nM"}, {"measurement": "EC50", "setting": "ACHN; Homo sapiens, log of EC50, negative, read-out: log(EC50) (converted)", "value": 1950, "unit": "nM"}, {"measurement": "EC50", "setting": "ACHN; Homo sapiens, read-out: EC50", "value": 1950, "unit": "nM"}, {"measurement": "EC50", "setting": "ACHN; read-out: EC50", "value": 1950, "unit": "nM"}]}
